Reference: ChEMBL document CHEMBL4229333, “Effects of rigidity on the selectivity of protein kinase inhibitors” (Eur J Med Chem, 2018)
In brackets after ≈: the same amount, converted by molar mass.

How the values were obtained:
[1] = Solubility of compound at 37 degC incubated for 24 hrs by HPLC method; type: physicochemical
[2] = molecular target: Tyrosine-protein kinase ABL1 (Homo sapiens, UniProt P00519); assay: Inhibition of ABL1 (unknown origin) at 1 uM by mobility shift microfluidics platform based assay relative to control
[3] = molecular target: Calcium/calmodulin-dependent protein kinase type IV (Homo sapiens) (UniProt Q16566); assay: Inhibition of CAMK4 (unknown origin) at 1 uM by mobility shift microfluidics platform based assay relative to control
[4] = molecular target: Cyclin-dependent kinase 1 (Homo sapiens) (UniProt P06493); assay: Inhibition of CDK1 (unknown origin) at 1 uM by mobility shift microfluidics platform based assay relative to control
[5] = molecular target: Cyclin-dependent kinase 5 (Homo sapiens) (UniProt Q00535); assay: Inhibition of CDK5 (unknown origin) at 1 uM by mobility shift microfluidics platform based assay relative to control
[6] = molecular target: Casein kinase I isoform epsilon (Homo sapiens) (UniProt P49674); assay: Inhibition of CK1-epsilon (unknown origin) at 1 uM by mobility shift microfluidics platform based assay relative to control
[7] = molecular target: Casein kinase I isoform gamma-2 (Homo sapiens) (UniProt P78368); assay: Inhibition of CK1-gamma2 (unknown origin) at 1 uM by mobility shift microfluidics platform based assay relative to control
[8] = molecular target: Focal adhesion kinase 1 (Homo sapiens) (UniProt Q05397); assay: Inhibition of FAK (unknown origin) at 1 uM by mobility shift microfluidics platform based assay relative to control
[9] = molecular target: Mitogen-activated protein kinase 8 (Homo sapiens) (UniProt P45983); assay: Inhibition of JNK1 (unknown origin) at 1 uM by mobility shift microfluidics platform based assay relative to control
[10] = molecular target: Tyrosine-protein kinase Lck (Homo sapiens) (UniProt P06239); assay: Inhibition of LCK (unknown origin) at 1 uM by mobility shift microfluidics platform based assay relative to control
[11] = test system: Leucine-rich repeat serine/threonine-protein kinase 2 (Homo sapiens), Q5S007 [G2019S]; assay: Inhibition of LRRK2 G2019S mutant (unknown origin) at 1 uM by mobility shift microfluidics platform based assay relative to control
[12] = molecular target: Mitogen-activated protein kinase kinase kinase kinase 4 (Homo sapiens) (UniProt O95819); assay: Inhibition of MAP4K4 (unknown origin) at 1 uM by mobility shift microfluidics platform based assay relative to control
[13] = molecular target: MAP kinase-interacting serine/threonine-protein kinase 1 (Homo sapiens) (UniProt Q9BUB5); assay: Inhibition of MKNK1 (unknown origin) at 1 uM by mobility shift microfluidics platform based assay relative to control
[14] = molecular target: Serine/threonine-protein kinase MRCK alpha (Homo sapiens) (UniProt Q5VT25); assay: Inhibition of MRCK-alpha (unknown origin) at 1 uM by mobility shift microfluidics platform based assay relative to control
[15] = molecular target: Ribosomal protein S6 kinase alpha-4 (Homo sapiens) (UniProt O75676); assay: Inhibition of MSK2 (unknown origin) at 1 uM by mobility shift microfluidics platform based assay relative to control
[16] = molecular target: Serine/threonine-protein kinase PAK 5 (Homo sapiens) (UniProt Q9P286); assay: Inhibition of PAK5 (unknown origin) at 1 uM by mobility shift microfluidics platform based assay relative to control
[17] = molecular target: Serine/threonine-protein kinase PAK 6 (Homo sapiens) (UniProt Q9NQU5); assay: Inhibition of PAK6 (unknown origin) at 1 uM by mobility shift microfluidics platform based assay relative to control
[18] = molecular target: Serine/threonine-protein kinase MARK2 (Homo sapiens) (UniProt Q7KZI7); assay: Inhibition of PAR-1B-alpha (unknown origin) at 1 uM by mobility shift microfluidics platform based assay relative to control
[19] = molecular target: PAS domain-containing serine/threonine-protein kinase (Homo sapiens) (UniProt Q96RG2); assay: Inhibition of PASK (unknown origin) at 1 uM by mobility shift microfluidics platform based assay relative to control
[20] = molecular target: Phosphorylase b kinase gamma catalytic chain, liver/testis isoform (Homo sapiens) (UniProt P15735); assay: Inhibition of PHK-gamma2 (unknown origin) at 1 uM by mobility shift microfluidics platform based assay relative to control
[21] = molecular target: Phosphatidylinositol 4,5-bisphosphate 3-kinase catalytic subunit beta isoform (Homo sapiens) (UniProt P42338); assay: Inhibition of PI3K-beta (unknown origin) at 1 uM by mobility shift microfluidics platform based assay relative to control
[22] = molecular target: Serine/threonine-protein kinase pim-2 (Homo sapiens) (UniProt Q9P1W9); assay: Inhibition of PIM2 (unknown origin) at 1 uM by mobility shift microfluidics platform based assay relative to control
[23] = molecular target: Protein kinase C beta type (Homo sapiens) (UniProt P05771); assay: Inhibition of PKC-beta1 (unknown origin) at 1 uM by mobility shift microfluidics platform based assay relative to control
[24] = molecular target: cAMP-dependent protein kinase catalytic subunit PRKX (Homo sapiens) (UniProt P51817); assay: Inhibition of PRKX (unknown origin) at 1 uM by mobility shift microfluidics platform based assay relative to control
[25] = molecular target: Proto-oncogene tyrosine-protein kinase receptor Ret (Homo sapiens) (UniProt P07949); assay: Inhibition of RET (unknown origin) at 1 uM by mobility shift microfluidics platform based assay relative to control
[26] = molecular target: Receptor-interacting serine/threonine-protein kinase 2 (Homo sapiens) (UniProt O43353); assay: Inhibition of RIPK2 (unknown origin) at 1 uM by mobility shift microfluidics platform based assay relative to control
[27] = molecular target: Ribosomal protein S6 kinase alpha-1 (Homo sapiens) (UniProt Q15418); assay: Inhibition of RSK1 (unknown origin) at 1 uM by mobility shift microfluidics platform based assay relative to control
[28] = molecular target: Serine/threonine-protein kinase Sgk2 (Homo sapiens) (UniProt Q9HBY8); assay: Inhibition of SGK2 (unknown origin) at 1 uM by mobility shift microfluidics platform based assay relative to control
[29] = molecular target: Mitogen-activated protein kinase kinase kinase 7 (Homo sapiens) (UniProt O43318); assay: Inhibition of TAK1 (unknown origin) at 1 uM by mobility shift microfluidics platform based assay relative to control
[30] = molecular target: High affinity nerve growth factor receptor (Homo sapiens) (UniProt P04629); assay: Inhibition of TRKA (unknown origin) at 1 uM by mobility shift microfluidics platform based assay relative to control
[31] = molecular target: Tyrosine-protein kinase TXK (Homo sapiens) (UniProt P42681); assay: Inhibition of TXK (unknown origin) at 1 uM by mobility shift microfluidics platform based assay relative to control
[32] = test system: Serine/threonine-protein kinase B-raf (Homo sapiens), P15056 [V600E]; assay: Ratio of IC50 for inhibition of BRAF V600E mutant (unknown origin) after 20 mins by immunoblotting assay to IC50 for inhibition of full length FLAG-tagged BRAF V600E mutant (unknown origin) expressed in HEK293 cells assessed as decrease in MEK phosphorylation by immunoblotting assay; type: cell-based
[33] = molecular target: Serine/threonine-protein kinase PLK4 (Homo sapiens) (UniProt O00444); assay: Inhibition of PLK4 (unknown origin) at 1 uM by mobility shift microfluidics platform based assay relative to control
Serine/threonine-protein kinase PLK4 (Homo sapiens), sequence (O00444 whole entry): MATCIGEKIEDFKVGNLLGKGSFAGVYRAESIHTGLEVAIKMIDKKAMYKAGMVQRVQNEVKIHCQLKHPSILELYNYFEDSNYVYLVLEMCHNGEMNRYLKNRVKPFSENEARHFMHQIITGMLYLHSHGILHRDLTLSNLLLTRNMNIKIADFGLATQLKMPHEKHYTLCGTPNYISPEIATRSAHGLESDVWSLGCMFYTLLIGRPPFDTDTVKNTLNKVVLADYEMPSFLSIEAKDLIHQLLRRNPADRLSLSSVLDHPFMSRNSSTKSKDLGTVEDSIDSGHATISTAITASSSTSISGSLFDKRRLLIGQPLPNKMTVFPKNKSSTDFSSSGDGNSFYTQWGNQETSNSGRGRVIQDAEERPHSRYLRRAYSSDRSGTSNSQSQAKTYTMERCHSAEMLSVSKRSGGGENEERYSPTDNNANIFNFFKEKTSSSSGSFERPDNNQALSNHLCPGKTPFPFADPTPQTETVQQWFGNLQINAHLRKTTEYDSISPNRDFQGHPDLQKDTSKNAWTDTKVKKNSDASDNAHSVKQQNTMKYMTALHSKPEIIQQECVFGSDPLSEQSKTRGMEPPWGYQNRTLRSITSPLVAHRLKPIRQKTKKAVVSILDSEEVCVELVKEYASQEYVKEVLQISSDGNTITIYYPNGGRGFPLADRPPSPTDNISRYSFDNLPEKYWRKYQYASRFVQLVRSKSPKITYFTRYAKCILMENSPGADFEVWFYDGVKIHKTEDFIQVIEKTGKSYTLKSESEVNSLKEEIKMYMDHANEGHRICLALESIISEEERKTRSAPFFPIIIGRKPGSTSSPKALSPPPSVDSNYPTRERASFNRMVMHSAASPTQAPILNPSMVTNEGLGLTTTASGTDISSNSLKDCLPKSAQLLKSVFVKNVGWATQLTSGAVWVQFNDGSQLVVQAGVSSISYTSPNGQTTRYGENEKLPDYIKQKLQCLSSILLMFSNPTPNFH

Cyclin-dependent kinase 5 (Homo sapiens), sequence (Q00535 whole entry, looked up, canonical isoform): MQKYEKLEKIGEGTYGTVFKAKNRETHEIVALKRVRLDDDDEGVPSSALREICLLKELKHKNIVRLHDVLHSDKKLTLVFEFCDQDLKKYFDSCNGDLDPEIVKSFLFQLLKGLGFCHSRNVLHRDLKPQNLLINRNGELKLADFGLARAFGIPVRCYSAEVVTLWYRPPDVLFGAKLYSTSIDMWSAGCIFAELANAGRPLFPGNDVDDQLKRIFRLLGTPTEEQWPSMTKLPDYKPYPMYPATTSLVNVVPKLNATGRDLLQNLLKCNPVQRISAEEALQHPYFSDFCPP
Serine/threonine-protein kinase MARK2 (Homo sapiens), sequence (Q7KZI7 whole entry, the tested form may be a part): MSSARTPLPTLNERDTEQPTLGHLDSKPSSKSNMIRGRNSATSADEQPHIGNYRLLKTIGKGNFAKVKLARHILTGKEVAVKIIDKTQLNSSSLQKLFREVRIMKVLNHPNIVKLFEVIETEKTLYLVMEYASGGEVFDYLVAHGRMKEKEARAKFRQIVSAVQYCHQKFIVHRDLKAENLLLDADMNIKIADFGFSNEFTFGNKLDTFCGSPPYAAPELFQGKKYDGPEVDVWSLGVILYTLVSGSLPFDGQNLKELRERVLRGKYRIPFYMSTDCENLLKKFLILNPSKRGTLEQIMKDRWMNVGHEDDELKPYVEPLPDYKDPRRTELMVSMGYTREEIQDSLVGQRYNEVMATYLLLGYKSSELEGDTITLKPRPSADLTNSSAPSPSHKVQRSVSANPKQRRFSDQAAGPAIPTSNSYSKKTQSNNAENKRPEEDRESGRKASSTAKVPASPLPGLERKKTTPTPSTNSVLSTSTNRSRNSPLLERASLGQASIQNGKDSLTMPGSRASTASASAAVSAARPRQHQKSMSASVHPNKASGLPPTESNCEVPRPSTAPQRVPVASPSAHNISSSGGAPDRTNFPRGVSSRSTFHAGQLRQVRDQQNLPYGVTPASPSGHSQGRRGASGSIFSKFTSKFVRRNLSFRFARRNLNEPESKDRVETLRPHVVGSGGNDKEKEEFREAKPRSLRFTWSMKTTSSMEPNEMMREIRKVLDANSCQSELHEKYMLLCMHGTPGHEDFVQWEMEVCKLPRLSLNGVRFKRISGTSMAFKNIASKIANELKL
Ribosomal protein S6 kinase alpha-1 (Homo sapiens), sequence (Q15418 whole entry): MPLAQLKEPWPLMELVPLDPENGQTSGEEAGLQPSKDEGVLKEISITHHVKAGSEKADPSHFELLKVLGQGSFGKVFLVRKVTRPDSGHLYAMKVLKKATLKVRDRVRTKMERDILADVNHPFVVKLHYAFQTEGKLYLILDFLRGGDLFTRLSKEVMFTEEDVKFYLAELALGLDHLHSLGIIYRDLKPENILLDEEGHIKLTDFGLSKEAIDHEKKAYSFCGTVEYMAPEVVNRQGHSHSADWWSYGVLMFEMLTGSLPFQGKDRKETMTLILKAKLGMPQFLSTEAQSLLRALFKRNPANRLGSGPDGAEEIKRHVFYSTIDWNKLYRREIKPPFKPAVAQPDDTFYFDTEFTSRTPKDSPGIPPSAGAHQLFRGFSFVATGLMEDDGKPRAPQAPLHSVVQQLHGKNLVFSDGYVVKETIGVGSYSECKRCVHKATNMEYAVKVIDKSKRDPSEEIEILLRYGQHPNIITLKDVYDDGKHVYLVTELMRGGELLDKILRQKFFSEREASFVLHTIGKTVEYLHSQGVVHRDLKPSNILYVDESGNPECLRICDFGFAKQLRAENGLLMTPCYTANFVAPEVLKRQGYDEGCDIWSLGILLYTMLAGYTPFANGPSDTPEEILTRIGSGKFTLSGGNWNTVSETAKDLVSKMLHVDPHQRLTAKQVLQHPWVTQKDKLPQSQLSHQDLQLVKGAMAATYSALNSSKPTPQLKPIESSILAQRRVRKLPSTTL
Tyrosine-protein kinase TXK (Homo sapiens), sequence (P42681 whole entry): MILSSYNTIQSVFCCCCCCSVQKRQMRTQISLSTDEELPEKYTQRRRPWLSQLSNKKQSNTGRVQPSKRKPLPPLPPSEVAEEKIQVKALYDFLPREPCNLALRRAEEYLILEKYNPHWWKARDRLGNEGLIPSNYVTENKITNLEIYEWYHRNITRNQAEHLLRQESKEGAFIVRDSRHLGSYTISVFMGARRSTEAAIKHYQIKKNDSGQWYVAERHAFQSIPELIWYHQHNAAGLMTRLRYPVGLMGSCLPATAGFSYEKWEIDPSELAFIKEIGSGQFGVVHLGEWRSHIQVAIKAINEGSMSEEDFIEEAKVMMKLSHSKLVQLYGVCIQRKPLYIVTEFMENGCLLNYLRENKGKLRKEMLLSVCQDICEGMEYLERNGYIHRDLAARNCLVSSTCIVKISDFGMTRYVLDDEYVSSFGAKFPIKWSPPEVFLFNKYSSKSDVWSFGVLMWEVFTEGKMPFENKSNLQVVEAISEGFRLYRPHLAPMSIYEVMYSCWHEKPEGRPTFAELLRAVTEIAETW
Mitogen-activated protein kinase 8 (Homo sapiens), sequence (P45983 whole entry): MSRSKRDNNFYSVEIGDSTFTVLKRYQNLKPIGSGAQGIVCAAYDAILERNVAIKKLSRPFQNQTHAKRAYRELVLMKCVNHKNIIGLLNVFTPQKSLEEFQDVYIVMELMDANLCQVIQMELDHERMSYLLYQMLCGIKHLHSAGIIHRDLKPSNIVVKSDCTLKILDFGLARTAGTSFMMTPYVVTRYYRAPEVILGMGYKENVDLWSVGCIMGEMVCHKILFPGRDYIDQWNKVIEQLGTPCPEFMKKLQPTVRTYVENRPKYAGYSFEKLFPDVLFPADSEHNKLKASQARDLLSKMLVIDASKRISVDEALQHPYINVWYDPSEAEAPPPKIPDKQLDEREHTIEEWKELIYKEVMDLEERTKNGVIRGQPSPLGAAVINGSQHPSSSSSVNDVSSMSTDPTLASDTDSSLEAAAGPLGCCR
Receptor-interacting serine/threonine-protein kinase 2 (Homo sapiens), sequence (O43353 whole entry): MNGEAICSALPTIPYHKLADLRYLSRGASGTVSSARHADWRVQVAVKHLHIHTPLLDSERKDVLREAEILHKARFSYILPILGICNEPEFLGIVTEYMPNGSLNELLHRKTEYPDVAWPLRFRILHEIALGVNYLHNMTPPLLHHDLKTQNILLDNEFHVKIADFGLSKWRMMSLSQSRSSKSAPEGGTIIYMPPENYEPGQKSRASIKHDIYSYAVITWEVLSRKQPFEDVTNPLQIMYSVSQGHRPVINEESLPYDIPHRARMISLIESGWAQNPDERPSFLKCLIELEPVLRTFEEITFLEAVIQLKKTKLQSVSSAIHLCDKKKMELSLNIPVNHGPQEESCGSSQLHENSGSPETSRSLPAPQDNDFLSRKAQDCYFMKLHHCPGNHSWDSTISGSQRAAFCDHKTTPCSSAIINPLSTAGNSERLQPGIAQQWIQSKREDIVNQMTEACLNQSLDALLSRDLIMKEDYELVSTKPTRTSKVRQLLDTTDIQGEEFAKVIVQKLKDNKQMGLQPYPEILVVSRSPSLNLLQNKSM
Ribosomal protein S6 kinase alpha-4 (Homo sapiens), sequence (O75676 whole entry, looked up): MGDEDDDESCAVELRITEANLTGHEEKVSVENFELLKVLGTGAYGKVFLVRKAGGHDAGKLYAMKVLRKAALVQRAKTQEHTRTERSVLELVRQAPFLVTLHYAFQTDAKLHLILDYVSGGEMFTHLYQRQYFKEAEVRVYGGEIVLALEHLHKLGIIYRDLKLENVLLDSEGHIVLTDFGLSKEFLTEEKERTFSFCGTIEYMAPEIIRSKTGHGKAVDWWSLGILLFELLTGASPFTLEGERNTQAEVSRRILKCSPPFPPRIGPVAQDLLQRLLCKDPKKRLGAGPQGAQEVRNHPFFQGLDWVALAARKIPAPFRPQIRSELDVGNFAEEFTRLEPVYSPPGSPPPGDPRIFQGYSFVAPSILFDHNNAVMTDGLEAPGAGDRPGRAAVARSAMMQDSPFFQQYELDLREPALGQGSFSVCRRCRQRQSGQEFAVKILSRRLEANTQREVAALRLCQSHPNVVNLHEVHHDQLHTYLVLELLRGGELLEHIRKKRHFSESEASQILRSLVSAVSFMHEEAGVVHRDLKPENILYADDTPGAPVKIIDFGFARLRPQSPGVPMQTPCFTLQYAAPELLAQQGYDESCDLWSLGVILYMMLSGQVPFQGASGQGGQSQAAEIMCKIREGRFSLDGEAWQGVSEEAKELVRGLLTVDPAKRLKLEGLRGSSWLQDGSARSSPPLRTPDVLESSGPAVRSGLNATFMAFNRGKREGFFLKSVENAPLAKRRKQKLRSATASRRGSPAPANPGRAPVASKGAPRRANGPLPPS

SMILES	solubility at 24 h [1] [µM]	inhibition [2] [%]	inhibition [3] [%]	inhibition [4] [%]	inhibition [5] [%]	inhibition [6] [%]	inhibition [7] [%]	inhibition [8] [%]	inhibition [9] [%]	inhibition [10] [%]	inhibition [11] [%]	inhibition [12] [%]	inhibition [13] [%]	inhibition [14] [%]	inhibition [15] [%]	inhibition [16] [%]	inhibition [17] [%]	inhibition [18] [%]	inhibition [19] [%]	inhibition [20] [%]	also measured
CC(C)n1nc(C#Cc2cccc(NC(=O)c3cccc(C(F)(F)F)c3)c2)c2c(N)ncnc21	161 (≈ 74.8 µg/mL)	98	11	6	2	27	1	-8	-9	100	36	69	0	0	3	0	-1	0	-4	-8	inhibition [21]: 1%; inhibition [22]: -1%; inhibition [23]: -3%; inhibition [24]: 2%; inhibition [25]: 100%; inhibition [26]: 98%; inhibition [27]: 9%; inhibition [28]: 0%; inhibition [29]: 62%; inhibition [30]: 22%; inhibition [31]: 94%; Ratio IC50 [32]: 2 to 4; inhibition [33]: 74%
CC(C)n1nc(C#Cc2cccc3cc(-c4cccc(C(F)(F)F)c4)ncc23)c2c(N)ncnc21	60 (≈ 28.3 µg/mL)	96	6	0	3	8	2	3	2	85	3	3	2	2	5	-4	3	0	1	4	inhibition [21]: -5%; inhibition [22]: 0%; inhibition [23]: 2%; inhibition [24]: -4%; inhibition [25]: 98%; inhibition [26]: 82%; inhibition [27]: 1%; inhibition [28]: -2%; inhibition [29]: 5%; inhibition [30]: 2%; inhibition [31]: 5%; Ratio IC50 [32]: 2 to 4; inhibition [33]: 5%
